Experimental data from publication PMC6842543, “Antiparasitic effect of synthetic aromathecins on Leishmania infantum” (BMC Veterinary Research, 2019).
Values after ≈ are worked out from the molar mass of the structure shown. “Also recorded” adds a separate entry of the source. Read-outs that look alike come from different tables or passages of the source.

Columns and labels:
[1] = system: L. infantum promastigotes; experiment: In vitro iRFP L. infantum promastigotes viability assay (infrared fluorescence); assay type: cell-based, Leishmania infantum; details: Leishmania infantum, 72 h, read-out: EC50 L. infantum promastigotes
Experimental: (§1) Two series of aromathecins (Table 1) have been tested against both stages of L. infantum, free-living promastigotes and intracellular amastigotes harbored in mouse splenic cells. Experiments were carried out using a genetically modified L. infantum strain that constitutively produces the iRFP protein. This makes it possible to evaluate the viability of parasites measuring the fluorescence emitted at 708 nm.
The antiparasitic activity of the compounds was assessed on the genetically modified iRFP L. infantum strain, which constitutively produces the infrared fluorescent protein (iRFP) when cells are viable. iRFP L. infantum was grown at 26 °C in M-199 medium (Gibco) supplemented with 25 mM HEPES pH 7.2, 0.1 mM adenine, 0.0005% (w/v) hemin, 2 μg/mL biopterin, 0.0001% (w/v) biotin, 10% (v/v) heat-inactivated fetal bovine serum (FBS) and an antibiotic cocktail comprising 50 U/mL penicillin and 50 μg/mL streptomycin.
(§2) The viability of cultured parasites in the presence of different concentrations of aromathecins was determined by measuring the reduction of infrared fluorescence emitted by free-living promastigotes/amastigotes with respect to negative controls of each form of the parasite treated with DMSO (up to 0.1% final concentration) as a vehicle. […] After 72 h incubation at 26 °C, the infrared fluorescence emitted at 708 nm by viable promastigotes/amastigotes was measured in an Odyssey (Li-Cor) infrared imaging system. Similarly, the cytotoxic effect (CC50) of aromathecins on uninfected splenic explants from BALB/c mice (cells that naturally harbor the amastigote stage) was measured by the Alamar Blue (Invitrogen) assay. The selectivity index (SI) was determined as the relationship between the CC50 value and the EC50 value for amastigotes. CC50 and EC50 were calculated by nonlinear analysis using the Sigma-Plot 10.0 statistical package. The aromathecins were dissolved in DMSO and stored at − 20 °C before their use as fresh aliquots.

L. infantum amastigotes = experiment: Ex vivo murine splenic explant culture with intramacrophagic iRFP L. infantum amastigotes; assay type: cell-based, Leishmania infantum; details: for SI: Selectivity Index = CC50/EC50 (amastigotes): CC50 murine splenocytes / EC50 amastigotes; for EC50: Leishmania infantum, 72 h, read-out: EC50 L. infantum amastigotes
Experimental: as §1
Primary splenocyte cultures containing intramacrophagic amastigotes were obtained from dissected spleens of female BALB/c mice infected intraperitoneally with 1.5 × 10^9 metacyclic iRFP L. infantum promastigotes, 5 weeks before their sacrifice. Mice were obtained commercially (Janvier-Labs). Animals were housed in specific-pathogen free facilities and they were euthanized by cervical dislocation without anesthesia. These protocols were approved by the Animal Care Committee of University of Leon (project license SAF2017–83575-R), which complies with European Union Legislation (2010/63/UE) and Spanish Act (RD 53/2013).
(§3) The spleens were washed with cold phosphate-buffered saline (PBS), cut in small pieces and incubated for 20 min with 5 mL of 2 mg/mL collagenase D (Sigma) prepared in buffer (10 mM HEPES, pH 7.4, 150 mM NaCl, 5 mM KCl, 1 mM MgCl2 and 1.8 mM CaCl2). After that, the cell suspension obtained was passed through a 100 μm cell strainer, harvested by centrifugation (500×g for 7 min at 4 °C), washed twice with PBS, and cultured at 37 °C under 5% CO2 atmosphere in RPMI medium (Gibco) supplemented with 10 mM HEPES, 1 mM sodium pyruvate, 1xRPMI 1640 vitamin mix, 10% (v/v) FBS, 50 U/mL penicillin and 50 μg/mL streptomycin (Calvo-Álvarez et al., 2015).
as §2

[2] = Cytotoxicity on uninfected splenic explants (Alamar Blue); assay type: cell-based, BALB/c mice; details: mouse, uninfected splenic explants from BALB/c mice, Alamar Blue
Experimental: as §3, §2

recombinant LTopIB = experiment: TopIB relaxation activity assay (supercoiled pBluescript-SK plasmid, agarose gel with ethidium bromide); assay type: biochemical, Leishmania; details: for Inhibition of LTopIB relaxation activity (in words): 0.01, 0.1, 1, 10 and 100 μM, 26 °C, 4 min; for Concentration at which partial inhibition of LTopIB started: not concentration dependent; for Total inhibition of LTopIB: only at high concentration (100 μM)
Experimental: In addition to the antileishmanial effect of these compounds, their activity as LTopIB inhibitors was analyzed in vitro (Fig. 2). Recombinant LTopIB was produced in a TopIB-defective yeast platform, and purified by standard chromatographic protocols. The effect of aromathecins (comp. 1 to 10) on LTopIB was addressed by measuring the relaxation of negatively supercoiled pBluescript-SK DNA plasmid in the presence of different concentrations of these molecules. In order to separate the nicked DNA generated by the cleavage-complex stabilization from the relaxed topoisomers, gels were run in the presence of ethidium bromide.
Fig. 2 Inhibition of LTopIB relaxation activity of negatively supercoiled pBluescript SK (−) plasmid (pSK) mediated by different aromathecins concentrations (0.01, 0.1, 1, 10 and 100 μM). The control reaction contained 1% DMSO. DNA was separated by gel electrophoresis in 1% agarose containing 0.1 μg/mL ethidium bromide. Gels were visualized with UV illumination. Key: R = relaxed DNA; Sc = supercoiled DNA; N = nicked DNA
Expression and purification of LTopIB were carried out according to a previously standardized protocol. LTopIB was purified from yeast strain EKY3 deficient in TopIB activity [MATα, ura3–52, his3Δ200, leu2Δ1, trp1Δ63, top1Δ:TRP1], transfected with the pESC-URA plasmid containing both subunits of LTopIB. Cells were grown in yeast synthetic drop-out medium without uracil (Sigma) supplemented with 2% raffinose (w/v) to OD600: 0.8–1 and induced for 10 h with 2% galactose (w/v). Yeast were harvested, washed with cold TEEG buffer (50 mM Tris-HCl pH 7.4, 1 mM EDTA, 1 mM EGTA, 10% glycerol) and resuspended to their lysis in 15 mL of 1 x TEEG buffer supplemented with 0.2 M KCl and a protease inhibitors cocktail (Thermo Scientific). Protein extract obtained was loaded on a 5 mL P-11 phosphocellulose column (Whatman International Ltd. England). LTopIB protein was eluted at 4 °C with a discontinuous gradient of KCl (0.2, 0.4, 0.6 M) in TEEG buffer.
The effect of aromathecins on recombinant LTopIB was determined by measuring the relaxation of negatively supercoiled pBluescript-SK DNA plasmid (pSK). Thus, 20 μL of reaction mixture (0.5 μg pSK; 10 mM Tris-HCl pH 7.5; 5 mM MgCl2; 0.1 mM EDTA; 15 μg/mL bovine serum albumin) along with 0.01, 0.1, 1, 10 and 100 μM of the different aromathecins were incubated at 26 °C during 4 min. The control reaction performed without aromathecins contained 1% DMSO. Reactions were stopped by adding 1% SDS (final concentration), digested with 1 mg/mL proteinase K at 37 °C during 1 h and extracted with phenol/chloroform. DNA was separated by gel electrophoresis in 1% agarose containing 0.1 μg/mL ethidium bromide in 0.1 M Tris borate EDTA buffer (pH 8.0) at 4 V/cm for 16 h. Gels were visualized with UV illumination.

[3] = Solubility limit in culture medium; assay type: physicochemical; details: M199 culture medium
Experimental: (§4) The CPT resistant strain used in this work was generated exposing L. infantum promastigotes to increased concentrations of CPT, from 0.1 to the solubility limit of the compound, 20 μM in the case of CPT. Parasites were grown at 26 °C in M199 medium supplemented as described previously, each culture being inoculated at an initial density of 10^6 cells/mL. The promastigotes cultured in liquid medium in the presence of 20 μM CPT, were plated on semisolid M199 medium containing 20 μM CTP in order to select a single colony.

[4] = system: CPT-20 (CPT-resistant L. infantum promastigotes); experiment: Susceptibility of CPT-resistant strain CPT-20 promastigotes; assay type: cell-based, Leishmania infantum; details: read-out: EC50 in CPT-20 strain
Experimental: (§5) In order to evaluate if aromathecins would share the transporter involved in CPT resistance, one of the major problems related to the loss of effectiveness of CPT derivatives, a CPT-resistant strain was generated. The CPT-resistant strain used was generated by the exposure of L. infantum promastigotes to increasing concentrations of CPT, from 0.1 to 20 μM (CPT-20, from now on). […] Therefore, it is very likely that the resistance mechanism of CPT-20 is related to the overexpression of the ABCG6 transporter previously described as the drug-efflux pump involved in the CPT resistance mechanism. The CPT-20 strain was susceptible to the aromathecins assayed in this work (2, 5 and 10 were not assayed due to their poor effect against iRFP L. infantum promastigotes), showing very similar EC50 values to those obtained with iRFP L. infantum.
as §4

L. infantum WT strain = experiment: Susceptibility of WT strain promastigotes; assay type: cell-based, Leishmania infantum
Experimental: as §5

[5] = iRFP-L. infantum promastigotes, 26 °C, fluorescence at 708 nm, average of three experiments by duplicate
[6] = splenic-infecting amastigotes, ex vivo explants from infected BALB/c mice
[7] = read-out: CC50 Murine Splenocytes
[8] = uninfected splenic explants (murine splenocytes)

Structure (SMILES)	EC50 [1, 5] [nM]	SI: Selectivity Index = CC50/EC50 (amastigotes) (L. infantum amastigotes)	EC50 (L. infantum amastigotes; [6]) [nM]	Inhibition of LTopIB relaxation activity (in words) (recombinant LTopIB)	Concentration at which partial inhibition of LTopIB started (recombinant LTopIB) [µM]	CC50 at 72 h [2, 8] [nM]	other results
O=c1c2ccccc2cc2n1Cc1c-2nc2ccccc2c1CCCn1ccnc1 [Compound 5]	> 20000	5.2	440 ± 30	partial inhibition	0.01		CC50 at 72 h [2, 7]: 2310 ± 720 nM
CN(C)Cc1c2c(nc3cc4c(cc13)OCCO4)-c1cc3ccccc3c(=O)n1C2 [Compound 8]	5090 ± 820	10.6	350 ± 30			3720 ± 760	Nicked DNA from cleavage-complex stabilization (recombinant LTopIB; gel run in the presence of ethidium bromide): weak band of nicked DNA; also recorded: nick DNA from cleavage-complex stabilization
NCCCc1c2c(nc3cc4c(cc13)OCCO4)-c1cc3ccccc3c(=O)n1C2 [Compound 7]	13300 ± 2740		1110 ± 80	partial inhibition	0.01		CC50 at 72 h [2, 7]: 310 ± 40 nM; Total inhibition of LTopIB (recombinant LTopIB): total inhibition
NCCCCNCc1c2c(nc3ccccc13)-c1cc3ccccc3c(=O)n1C2 [Compound 3]	3710 ± 450	2.5	1010 ± 130	partial inhibition	0.01	2530 ± 140	Total inhibition of LTopIB (recombinant LTopIB): total inhibition
CC[C@@]1(O)C(=O)OCc2c1cc1n(c2=O)Cc2cc3ccccc3nc2-1 [CPT, Camptothecin, reference compound]							EC50 [1]: 1120 ± 130 nM; EC50 (L. infantum amastigotes): 30 ± 10 nM; CC50 at 72 h [2, 7]: 620 ± 10 nM; solubility [3]: 20 µM (≈ 6.97 µg/mL)
CN(C)CCCc1c2c(nc3cc4c(cc13)OCCO4)-c1cc3ccccc3c(=O)n1C2 [Compound 9]	3030 ± 450	8.0	370 ± 1060	only happed at a high concentration		3040 ± 1060	Total inhibition of LTopIB (recombinant LTopIB): total inhibition
CN(C)CCCc1c2c(nc3ccccc13)-c1cc3ccccc3c(=O)n1C2 [Compound 1]	6270 ± 700	9.8	450 ± 140	partial inhibition; also recorded: inhibit the enzyme at very low concentrations	0.01	4410 ± 1070	
CCc1c2c(nc3ccc(O)cc13)-c1cc3c(c(=O)n1C2)COC(=O)[C@]3(O)CC [SN38]							EC50 ([4]; CPT-resistant L. infantum promastigotes selected up to 20 μM CPT): 40980 ± 300 nM; EC50 (L. infantum WT strain): 4730 ± 140 nM
O=c1c2ccccc2cc2n1Cc1c-2nc2cccc(Cl)c2c1CNCCCn1ccnc1 [Compound 6]	3330 ± 170	3.7	190 ± 30	did not have any inhibitory effect; also recorded: do not have LTopIB inhibitory activity		700 ± 120	
CC[C@@]1(O)C(=O)OCc2c1cc1n(c2=O)Cc2cc3c(CN(C)C)c(O)ccc3nc2-1 [topotecan]							EC50 ([4]; Leishmania infantum): > 100000 nM; EC50 (L. infantum WT strain; Leishmania infantum): 9540 ± 220 nM
O=c1c2ccccc2cc2n1Cc1c-2nc2cc3c(cc2c1Cn1ccnc1)OCCO3 [Compound 10]	> 20000	9.3	580 ± 50	did not have any inhibitory effect; also recorded: do not have LTopIB inhibitory activity		5560 ± 1130	
NCCNCc1c2c(nc3ccccc13)-c1cc3ccccc3c(=O)n1C2 [Compound 2]	> 20000		810 ± 50			2170 ± 270	
O=c1c2ccccc2cc2n1Cc1c-2nc2ccccc2c1CCCNCCO [Compound 4]	4990 ± 310	5.0	990 ± 1170	partial inhibition	0.01	4960 ± 520	
